Target: T1, human mAChR M4 (Homo sapiens, UniProt P08173)
T1 construct: expressed in transfected cells; host or cells: CHO-K1 (American Type Culture Collection), stably expressing hM4 and Gqi5
T1 sequence (P08173 1-479): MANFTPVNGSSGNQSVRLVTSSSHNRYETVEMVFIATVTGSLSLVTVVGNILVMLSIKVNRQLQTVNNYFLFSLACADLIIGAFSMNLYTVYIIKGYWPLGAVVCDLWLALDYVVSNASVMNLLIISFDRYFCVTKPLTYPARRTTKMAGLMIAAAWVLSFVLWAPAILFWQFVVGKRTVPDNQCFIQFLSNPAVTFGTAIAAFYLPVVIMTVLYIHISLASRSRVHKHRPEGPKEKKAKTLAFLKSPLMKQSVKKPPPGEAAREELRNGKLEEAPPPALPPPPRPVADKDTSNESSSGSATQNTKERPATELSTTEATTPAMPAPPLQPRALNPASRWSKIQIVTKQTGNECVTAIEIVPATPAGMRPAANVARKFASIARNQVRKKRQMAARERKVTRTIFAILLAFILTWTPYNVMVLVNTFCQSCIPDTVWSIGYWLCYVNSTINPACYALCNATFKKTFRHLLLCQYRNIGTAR
Assay: mAChR M4 cell-based functional assay: calcium mobilization (Fluo-4, FDSS), potentiation of EC20 acetylcholine response in hM4-Gqi5 CHO-K1 cells
Details: human M4; for Emax at 30 µM: CHO-K1, % ACh maximum at 30 μM; for EC50: potentiation of EC20 acetylcholine response, calcium mobilization
Summary of the method: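 CHO-K1 cells stably co-expressing human M4 and chimeric Gqi5, loaded with Fluo-4 AM (50 min, 37 °C). Compounds in 11-point 1:3 series added first; EC20 acetylcholine added at 144 s and again at 230 s. Calcium read on FDSS at 1 Hz; EC50 and Emax from four-parameter logistic fit of potentiated EC20 response.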

Emax at 30 µM [%]	EC50 [µM]	SMILES
91	0.104	Cc1cc(=O)n2nc(N3CCc4ncc(-c5cnc(F)cc5C)cc4C3)c(C)c(C)c2n1 [Compound 1-202, 7-(3-(6-fluoro-4-methylpyridin-3-yl)-7,8-dihydro-1,6-naphthyridin-6(5H)-yl)-2,8,9-trimethyl-4H-pyrimido[1,2-b]pyridazin-4-one]
94	0.153	COCc1cc(=O)n2nc(N3CCc4ncc(-c5ccsc5)cc4C3)c(C)cc2n1 [Compound 1-370, 2-(methoxymethyl)-8-methyl-7-(3-(thiophen-3-yl)-7,8-dihydro-1,6-naphthyridin-6(5H)-yl)-4H-pyrimido[1,2-b]pyridazin-4-one]
47	2.2	Cc1cc2nccc(=O)n2nc1N1CCc2ncc(NC(=O)C3CCOCC3)cc2C1 [Compound 2-110, N-(6-(8-methyl-4-oxo-4H-pyrimido[1,2-b]pyridazin-7-yl)-5,6,7,8-tetrahydro-1,6-naphthyridin-3-yl)tetrahydro-2H-pyran-4-carboxamide]
89	0.016	Cc1cc2nccc(=O)n2nc1N1CCc2ncc(N3c4ccc(F)cc4OCC3C)cc2C1 (stereo not shown) [Compound 2-52, 7-(3-(7-fluoro-3-methyl-2,3-dihydro-4H-benzo[b][1,4]oxazin-4-yl)-7,8-dihydro-1,6-naphthyridin-6(5H)-yl)-8-methyl-4H-pyrimido[1,2-b]pyridazin-4-one]
101	0.039	Cc1cc2nccc(=O)n2nc1N1CCc2ncc(Nc3cc(F)nc(F)c3)cc2C1 [Compound 2-100, 7-(3-((2,6-difluoropyridin-4-yl)amino)-7,8-dihydro-1,6-naphthyridin-6(5H)-yl)-8-methyl-4H-pyrimido[1,2-b]pyridazin-4-one]
99	0.162	CCc1cc(=O)n2nc(N3CCc4ncc(C(F)(F)F)cc4C3)c(C)c(C)c2n1 [Compound 1-105, 2-ethyl-8,9-dimethyl-7-(3-(trifluoromethyl)-7,8-dihydro-1,6-naphthyridin-6(5H)-yl)-4H-pyrimido[1,2-b]pyridazin-4-one]
79	0.06	Cc1cc(=O)n2nc(N3CCc4ncc(Nc5cccnc5F)cc4C3)c(C)cc2n1 [Compound 2-19, 7-(3-((2-fluoropyridin-3-yl)amino)-7,8-dihydro-1,6-naphthyridin-6(5H)-yl)-2,8-dimethyl-4H-pyrimido[1,2-b]pyridazin-4-one]
71	0.448	Cc1cc2nccc(=O)n2nc1N1CCc2ncc(-c3ccc(OC(F)F)nc3)cc2C1 [Compound 1-315, 7-(3-(6-(difluoromethoxy)pyridin-3-yl)-7,8-dihydro-1,6-naphthyridin-6(5H)-yl)-8-methyl-4H-pyrimido[1,2-b]pyridazin-4-one]
86	0.81	Cc1cc2nccc(=O)n2nc1N1CCc2ncc(-c3ccsc3C=O)cc2C1 [Compound 1-415, 3-(6-(8-methyl-4-oxo-4H-pyrimido[1,2-b]pyridazin-7-yl)-5,6,7,8-tetrahydro-1,6-naphthyridin-3-yl)thiophene-2-carbaldehyde]
57	0.441	CCc1ccccc1-c1cnc2c(c1)CN(c1nn3c(=O)cc(C)nc3cc1C)CC2 [Compound 1-232, 7-(3-(2-ethylphenyl)-7,8-dihydro-1,6-naphthyridin-6(5H)-yl)-2,8-dimethyl-4H-pyrimido[1,2-b]pyridazin-4-one]
72	0.204	CCc1ccccc1-c1cnc2c(c1)CN(c1nn3c(=O)ccnc3c(C)c1C)CC2 [Compound 1-342, 7-(3-(2-ethylphenyl)-7,8-dihydro-1,6-naphthyridin-6(5H)-yl)-8,9-dimethyl-4H-pyrimido[1,2-b]pyridazin-4-one]
85	0.805	Cc1cc(=O)n2nc(N3CCc4ncc(-c5cnn(C6COC6)c5)cc4C3)c(C)c(C)c2n1 [Compound 1-179, 2,8,9-trimethyl-7-(3-(1-(oxetan-3-yl)-1H-pyrazol-4-yl)-7,8-dihydro-1,6-naphthyridin-6(5H)-yl)-4H-pyrimido[1,2-b]pyridazin-4-one]
88	0.022	Cc1cc2nc(C(F)F)cc(=O)n2nc1N1CCc2ncc(N3CCCn4nccc43)cc2C1 [Compound 2-14, 2-(difluoromethyl)-7-(3-(6,7-dihydropyrazolo[1,5-a]pyrimidin-4(5H)-yl)-7,8-dihydro-1,6-naphthyridin-6(5H)-yl)-8-methyl-4H-pyrimido[1,2-b]pyridazin-4-one]
80	0.063	Cc1ccc(F)cc1-c1cnc2c(c1)CN(c1nn3c(=O)ccnc3cc1C)CC2 [Compound 1-432, 7-(3-(5-fluoro-2-methylphenyl)-7,8-dihydro-1,6-naphthyridin-6(5H)-yl)-8-methyl-4H-pyrimido [1,2-b]pyridazin-4-one]
95	0.048	Cc1cc2nccc(=O)n2nc1N1CCc2ncc(-c3sccc3C)cc2C1 [Compound 1-409, 8-methyl-7-(3-(3-methylthiophen-2-yl)-7,8-dihydro-1,6-naphthyridin-6(5H)-yl)-4H-pyrimido[1,2-b]pyridazin-4-one]
93	0.019	Cc1c(N2CCc3ncc(-c4cnccn4)cc3C2)nn2c(=O)cc(C(F)F)nc2c1C [Compound 1-116, 2-(difluoromethyl)-8,9-dimethyl-7-(3-(pyrazin-2-yl)-7,8-dihydro-1,6-naphthyridin-6(5H)-yl)-4H-pyrimido[1,2-b]pyridazin-4-one]
76	0.092	Cc1ccncc1-c1cnc2c(c1)CN(c1nn3c(=O)cc(C(F)F)nc3c(C)c1C)CC2 [Compound 1-161, 2-(difluoromethyl)-8,9-dimethyl-7-(3-(4-methylpyridin-3-yl)-7,8-dihydro-1,6-naphthyridin-6(5H)-yl)-4H-pyrimido[1,2-b]pyridazin-4-one]
89	0.883	Cc1ccc(-c2cnc3c(c2)CN(c2nn4c(=O)cc(C(F)F)nc4c(C)c2C)CC3)cc1 [Compound 1-169, 2-(difluoromethyl)-8,9-dimethyl-7-(3-(p-tolyl)-7,8-dihydro-1,6-naphthyridin-6(5H)-yl)-4H-pyrimido[1,2-b]pyridazin-4-one]
70	0.716	Cc1cc(OC(F)F)ncc1-c1cnc2c(c1)CN(c1nn3c(=O)ccnc3cc1C)CC2 [Compound 1-317, 7-(3-(6-(difluoromethoxy)-4-methylpyridin-3-yl)-7,8-dihydro-1,6-naphthyridin-6(5H)-yl)-8-methyl-4H-pyrimido[1,2-b]pyridazin-4-one]
88	0.122	Cc1c(N2CCc3ncc(-c4cnccc4Cl)cc3C2)nn2c(=O)ccnc2c1C [Compound 1-145, 7-(3-(4-chloropyridin-3-yl)-7,8-dihydro-1,6-naphthyridin-6(5H)-yl)-8,9-dimethyl-4H-pyrimido[1,2-b]pyridazin-4-one]
55	1.27	Cc1ccc(-c2cnc3c(c2)CN(c2nn4c(=O)ccnc4cc2C)CC3)nn1 [Compound 1-353, 8-methyl-7-(3-(6-methylpyridazin-3-yl)-7,8-dihydro-1,6-naphthyridin-6(5H)-yl)-4H-pyrimido[1,2-b] pyridazin-4-one]
97	0.047	Cc1cc2nccc(=O)n2nc1N1CCc2ncc(Nc3cccc(C#N)c3)cc2C1 [Compound 2-80, 3-((6-(8-methyl-4-oxo-4H-pyrimido[1,2-b]pyridazin-7-yl)-5,6,7,8-tetrahydro-1,6-naphthyridin-3-yl)amino)benzonitrile]
72	0.663	COc1ccccc1-c1cnc2c(c1)CN(c1nn3c(=O)ccnc3c(C)c1C)CC2 [Compound 1-344, 7-(3-(2-methoxyphenyl)-7,8-dihydro-1,6-naphthyridin-6(5H)-yl)-8,9-dimethyl-4H-pyrimido[1,2-b]pyridazin-4-one]
85	0.034	COCc1cc(=O)n2nc(N3CCc4ncc(-c5cnccc5C)cc4C3)c(C)c(C)c2n1 [Compound 1-228, 2-(methoxymethyl)-8,9-dimethyl-7-(3-(4-methylpyridin-3-yl)-7,8-dihydro-1,6-naphthyridin-6(5H)-yl)-4H-pyrimido[1,2-b] pyridazin-4-one]
88	0.019	Cc1cc2nccc(=O)n2nc1N1CCc2ncc(Nc3cc(F)cc(F)c3)cc2C1 [Compound 2-105, 7-(3-((3,5-difluorophenyl)amino)-7,8-dihydro-1,6-naphthyridin-6(5H)-yl)-8-methyl-4H-pyrimido[1,2-b]pyridazin-4-one]
66	0.827	COC1CCN(c2cnc3c(c2)CN(c2nn4c(=O)cc(C)nc4c(C)c2C)CC3)CC1 [Compound 2-45, 7-(3-(4-methoxypiperidin-1-yl)-7,8-dihydro-1,6-naphthyridin-6(5H)-yl)-2,8,9-trimethyl-4H-pyrimido[1,2-b]pyridazin-4-one]
